Data reported in US5591773A, “Inhibition of cataract formation, diseases resulting from oxidative stress, and HIV replication by caffeic acid esters” (priority 1994, dated 1997).

How the values were obtained:
[1] = system: 8-OHdGua in epidermal DNA; assay: TPA-induced 8-OHdGua formation in epidermal DNA of SENCAR mice; assay type: in vivo
Protocol: (§1) FIGS. 2A-2D. CAPE-mediated inhibition of TPA-induced oxidative processes in SENCAR mice. Mice were topically treated with 6.5 nmol CAPE 30 min prior to 6.5 nmol TPA, and this regimen was repeated 20 h later. Mice were sacrificed 1 h after the last treatment and the skin removed for determination of: (FIG. 2A) PMN infiltration (by measuring myeloperoxidase (MPO)); (FIG. 2B) H2 O2; (FIG. 2C) HMdUrd (HMdU); and (FIG. 2D) 8-OHdGua (8-OHdG), according to procedures described in the "Experimental Details" Section, infra. .quadrature., controls treated with acetone in place of CAPE and TPA; , treatment with acetone followed by TPA; .box-solid., treatment with CAPE followed by TPA. Results are expressed as mean ± SE (bars) from two experiments (2 mice/experiment) in the CAPE series. Data for acetone (ACT)- and TPA-treated mean values were collected from over 20 experiments.
(§2) C) MPO, H2 O2, and Oxidized DNA Bases. SENCAR mice were pretreated with CAPE for 30 min; then 6.5 nmol (4 μg) TPA/mouse topically applied to the dorsal skin. After 20 h, the CAPE and TPA treatment (1x) was repeated (2x treatment). One h after the second treatment, the mice were sacrificed by cervical dislocation, and 12.5-mm punches were obtained to be used separately for MPO and H2 O2 determinations. The remainder of the treated mouse skin or the combined skins from two mice were used for separation of epidermal cells. This was done by heating the skin at 55° C. for 30 s followed by rapid immersion into an ice-cold water bath (45). After the epidermis was scraped off, the presence of oxidized DNA base derivatives was measured in the epidermal DNA. All of these end points were analyzed by published procedures and are briefly described below.
(§3) The epidermis was homogenized and lysed, and the proteins and RNA were removed by proteinase K and RNase digestions, respectively (20). The DNA was separated and purified on A.S.A.P. columns (Boehringer-Mannheim Biochemicals) and precipitated with isopropyl alcohol.
(§4) The pellet was then washed with 70% ethyl alcohol, dried, and dissolved in 10 mM Tris.cndot.HCl-100 mM NaCl buffer, pH 7.0, according to the manufacturer's procedure. The DNA was sheared and enzymatically digested to nucleosides, and the hydrolysates were separated by HPLC (Beckman, Model 344) on an ODS column (Altex, 1×25 cm; 5 μm particle size) (50). The fractions that eluted after 30 ml were combined (excluding those containing normal nucleosides) and dried. The oxidized nucleosides were detected by ^3 H-postlabeling with [^3 H]acetic anhydride, followed by HPLC analysis of ^3 H-containing acetates in the presence of marker acetates (50). The results are presented as the number of oxidized nucleosides/10^4 normal bases, unless otherwise stated.
(§5) ^a Mice were treated as described in the legend to FIG. 2, except tha

HMdUrd in epidermal DNA = assay: TPA-induced HMdUrd formation in epidermal DNA of SENCAR mice; assay type: in vivo
Protocol: as §1, §2, §3, §4, §5

[2] = system: TPA-induced PMN infiltration in SENCAR mouse ears (MPO); assay: TPA-induced PMN infiltration (MPO) in mouse ears; assay type: in vivo, SENCAR mice; details: for MPO in mouse ears, TPA only: TPA 0.4 nmol/ear, 5 h
Protocol: (§6) FIG. 3. Effect of CAPE on TPA-induced PMN infiltration and edema in SENCAR mouse ears. These were paired experiments, in which both ears of each mouse (8-9/group) were treated with 0.4 nmol TPA±CAPE in 20 μl acetone, and the mice were sacrificed 5 h later. (A) One ear was frozen for subsequent determination of MPO (a measure of PMN infiltration). (B) A punch (6 mm diameter) was taken from the second ear and weighed to measure edematous response (weight of sample minus weight of control). (A) Ears of each group (7-9/group) were separately minced and homogenized under different conditions as described in the "Experimental Details" Section, infra. MPO was determined in duplicate. MPO was undetectable in acetone controls and was 4.13±0.0 units/mg protein and 1.18±0.1 units/mg protein in the 2 homogenates of TPA-only-treated mice. CAPE-mediated inhibition was calculated versus the appropriate TPA-only sample, which was homogenized the same way. (B) Weights of ear punches (8-9/group, each determined separately). Acetone controls, 7.2±0.1 mg; TPA in acetone, 16.7±0.7 mg.
B) Edema Determination. Both ears of SENCAR mice (7-9 mice/group) were treated with 0.4 nmol TPA in 20 μl acetone alone or together with added 0.1 nmol, 0.3 nmol, or 1 μmol CAPE. […] The mice were sacrificed by cervical dislocation 5 h after treatment, and edema was measured on one mouse ear, while the second ear was immediately frozen and later analyzed for PMN infiltration by quantifying myeloperoxidase (MPO) (see below). Ear edema (increased weight of ear punches) was determined as previously described (24). Edema was expressed as mg/6 mm (diameter) ear punch±SE.
The assay for MPO was carried out according to the procedure of Metcalf et al. (53) with some modifications (20), and the results are expressed as units/cm^2, where a unit is defined as that degrading 1 μmol H2 O2 /min at 25° C. The presence of MPO in the mouse ears was measured in the homogenates. […] Each homogenate was analyzed in duplicate and the results are expressed as mean MPO (units/mg protein) ±SE for each of the homogenates.

[3] = system: TPA-induced edema in SENCAR mouse ears; assay: TPA-induced ear edema; assay type: in vivo, SENCAR mice
Protocol: as §6
B) Edema Determination. Both ears of SENCAR mice (7-9 mice/group) were treated with 0.4 nmol TPA in 20 μl acetone alone or together with added 0.1 nmol, 0.3 nmol, or […] CAPE. Control mice were treated with acetone. The mice were sacrificed by cervical dislocation 5 h after treatment, and edema was measured on one mouse ear, while the second ear was immediately frozen and later analyzed for PMN infiltration by quantifying myeloperoxidase (MPO) (see below). Ear edema (increased weight of ear punches) was determined as previously described (24). Edema was expressed as mg/6 mm (diameter) ear punch±SE.

[4] = CAPE 6.5 nmol, TPA 6.5 nmol, 2x

Row | SMILES | 8-OHdGua/10^5 bases ([1]; CAPE 6.5 nmol then TPA 6.5 nmol, 2x, (2 experiments), SE 0.8 on next line) | 8-OHdGua suppression below acetone controls (basal levels) [1, 4] | decline of 8-OHdGua formation [1, 4] | 8-OHdGua/10^5 bases ([1]; CAPE 650 nmol then TPA 6.5 nmol, 2x, (2 experiments), SE 1.1 on next line) | inhibition of inflammatory processes, particularly oxidation of bases in DNA (in words) ([1]; compared with untreated blanks) | HMdUrd/10^4 bases (HMdUrd in epidermal DNA; CAPE 6.5 nmol then TPA 6.5 nmol, 2x, (2 experiments), SE 0.6 on next line) | HMdUrd levels (in words) (HMdUrd in epidermal DNA; [4]) | decline of HMdUrd formation (HMdUrd in epidermal DNA; [4]) | HMdUrd/10^4 bases (HMdUrd in epidermal DNA; CAPE 650 nmol then TPA 6.5 nmol, 2x, (2 experiments), SE 10.5 on next line) | suppression of TPA-induced PMN infiltration, ear ([2]; CAPE 0.1 nmol/ear, TPA 0.4 nmol) | orders of magnitude higher CAPE dose needed for similar inhibition of edema vs PMN infiltration ([3]; 1 μmol vs 0.1 nmol CAPE/ear) | inhibition of TPA-induced ear edema (in words) ([3]; CAPE 1 μmol/ear, TPA 0.4 nmol/ear) | fold higher CAPE dose required to comparably inhibit ear edema versus PMN infiltration in skin ([3]; relative to 6.5 nmol CAPE, same mouse strain, (76)) | 8-OHdGua/10^5 bases ([1]; TPA alone, 6.5 nmol, SE 6.3 on next line) | HMdUrd/10^4 bases (HMdUrd in epidermal DNA; TPA alone, 6.5 nmol, SE 6.4 on next line) | MPO in mouse ears, TPA only ([2]; first of 2 homogenates) | MPO in mouse ears, TPA only ([2]; second of 2 homogenates) | weight of ear punches ([3]; TPA 0.4 nmol in acetone, 5 h, 6 mm punch)
1 | O=C(/C=C/c1ccc(O)c(O)c1)OCCc1ccccc1 [CAPE, Caffeic acid phenethyl ester] | 1.4 /10^5 bases | 70% | ~170% | 9.4 /10^5 bases | down to the background levels represented by untreated blanks | 13.1 /10^4 bases | below the acetone/acetone controls | 115% | 30.5 /10^4 bases | ~50% | 4 orders of magnitude | inhibits | > 100 fold |  |  |  |  | 
2 | CCCCCCCCCCCCCC(=O)O[C@@H]1[C@@H](C)[C@@]2(O)[C@@H](C=C(CO)C[C@]3(O)C(=O)C(C)=C[C@@H]23)[C@@H]2C(C)(C)[C@]12OC(C)=O [TPA, 12-O-tetradecanoylphorbol-13-acetate] |  |  |  |  |  |  |  |  |  |  |  |  |  | 11.8 /10^5 bases | 39.4 /10^4 bases | 4.13±0.0 units/mg protein | 1.18±0.1 units/mg protein | 16.7 ± 0.7 mg
